Laboratory results: ChEMBL document CHEMBL1201862, “PubChem BioAssay data set” (2004)
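Exposure lasted 48 hours, with cells grown in 96-well plates and compounds tested at five concentrations. At the GI50, growth is halved.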 Calls of active or inactive are those of the source. Cut-off read from the data, not from the text of the source: active = GI50 up to about 1.1 µM and inactive = higher.

What was measured:
Experiment in all cases: DTP human tumour cell line panel, 48 h
EKVX = system: EKVX
UACC-62 = system: UACC-62
T47D = system: T47D
NCI-H460 = system: NCI-H460
KM12 = system: KM12
HT-29 = system: HT-29
SK-MEL-28 = system: SK-MEL-28
M14 = system: M14
MDA-MB-231 = system: MDA-MB-231
HOP-92 = system: HOP-92
U-251 = system: U-251
CAKI-1 = system: CAKI-1
K562 = system: K562
UO-31 = system: UO-31
NCI/ADR-RES = system: NCI/ADR-RES
786-0 = system: 786-0
OVCAR-3 = system: OVCAR-3
SR = system: SR
SF-295 = system: SF-295
Malme-3M = system: Malme-3M
A498 = system: A498
SF-539 = system: SF-539
SNB-19 = system: SNB-19
MDA-MB-435 = system: MDA-MB-435
SF-268 = system: SF-268
HL-60 = system: HL-60
LOX IMVI = system: LOX IMVI
IGROV-1 = system: IGROV-1
NCI-H226 = system: NCI-H226
A549 = system: A549
ACHN = system: ACHN
NCI-H23 = system: NCI-H23
MOLT-4 = system: MOLT-4
SK-OV-3 = system: SK-OV-3
RPMI-8226 = system: RPMI-8226
TK-10 = system: TK-10
COLO 205 = system: COLO 205
PC-3 = system: PC-3
Hs-578T = system: Hs-578T
SNB-75 = system: SNB-75
RXF 393 = system: RXF 393
SK-MEL-2 = system: SK-MEL-2
OVCAR-5 = system: OVCAR-5
HOP-62 = system: HOP-62
MDA-N = system: MDA-N
DU-145 = system: DU-145
SW-620 = system: SW-620
HCT-116 = system: HCT-116
HCT-15 = system: HCT-15
HCC 2998 = system: HCC 2998
SN12C = system: SN12C
NCI-H522 = system: NCI-H522
CCRF-CEM = system: CCRF-CEM
SK-MEL-5 = system: SK-MEL-5
OVCAR-4 = system: OVCAR-4
OVCAR-8 = system: OVCAR-8
UACC-257 = system: UACC-257
MCF7 = system: MCF7

Measured: GI50

C=C(Br)CNC(=O)Nc1ccc(Cl)c(Cl)c1
inactive: EKVX 28.1 µM | UACC-62 18.8 µM | T47D 17.9 µM | NCI-H460 26.5 µM | KM12 17.3 µM | HT-29 25.1 µM | SK-MEL-28 28.1 µM | M14 22.2 µM | MDA-MB-231 15.2 µM | HOP-92 19.9 µM | U-251 22.6 µM | CAKI-1 20.4 µM | K562 23.8 µM | UO-31 11.4 µM | NCI/ADR-RES 16.6 µM | 786-0 16 µM | OVCAR-3 13.4 µM | SR 30.9 µM | SF-295 26 µM | Malme-3M 20.1 µM | A498 9.12 µM | SF-539 19.3 µM | SNB-19 21.7 µM | MDA-MB-435 20.3 µM | SF-268 27.3 µM | HL-60 15.9 µM | LOX IMVI 19.7 µM | IGROV-1 13.6 µM | NCI-H226 25.4 µM | A549 21.5 µM | ACHN 17.5 µM | NCI-H23 15.6 µM | MOLT-4 26.2 µM | SK-OV-3 29 µM | RPMI-8226 17.3 µM | TK-10 25.8 µM | COLO 205 16.9 µM | PC-3 11.2 µM | Hs-578T 22.7 µM | SNB-75 21.3 µM | RXF 393 18.5 µM | SK-MEL-2 12.6 µM | OVCAR-5 33.1 µM | HOP-62 22.5 µM | MDA-N 27.3 µM | DU-145 23.6 µM | SW-620 35.4 µM | HCT-116 17.1 µM | HCC 2998 18.5 µM | SN12C 25.2 µM | NCI-H522 18.6 µM | CCRF-CEM 19.3 µM | SK-MEL-5 13.8 µM | OVCAR-4 29.5 µM
30.5 µM: HCT-15

COc1cc2c(c(OC)c1OC)C(=O)[C@@H](O)[C@H]2NC(N)=O
> 100 µM: HCT-15
inactive: EKVX > 100 µM | UACC-62 83.4 µM | T47D 31.6 µM | NCI-H460 > 100 µM | KM12 > 100 µM | HT-29 > 100 µM | SK-MEL-28 > 100 µM | M14 > 100 µM | MDA-MB-231 > 100 µM | U-251 > 100 µM | CAKI-1 > 100 µM | K562 > 100 µM | OVCAR-8 > 100 µM | UO-31 > 100 µM | NCI/ADR-RES > 100 µM | 786-0 > 100 µM | OVCAR-3 > 100 µM | SF-295 > 100 µM | Malme-3M > 100 µM | SF-539 > 100 µM | UACC-257 > 100 µM | SNB-19 > 100 µM | MDA-MB-435 > 100 µM | MCF7 > 100 µM | SF-268 > 100 µM | HL-60 > 100 µM | LOX IMVI > 100 µM | IGROV-1 > 100 µM | NCI-H226 > 100 µM | A549 > 100 µM | ACHN > 100 µM | NCI-H23 > 100 µM | MOLT-4 > 100 µM | RPMI-8226 > 100 µM | TK-10 > 100 µM | COLO 205 > 100 µM | PC-3 > 100 µM | Hs-578T > 100 µM | SNB-75 > 100 µM | RXF 393 > 100 µM | OVCAR-5 > 100 µM | HOP-62 > 100 µM | MDA-N > 100 µM | DU-145 > 100 µM | SW-620 > 100 µM | HCT-116 > 100 µM | HCC 2998 > 100 µM | SN12C > 100 µM | NCI-H522 > 100 µM | CCRF-CEM > 100 µM | SK-MEL-5 > 100 µM
